{"source": "patent US20250248393A1", "about": "“METHOD OF RELEASING A SEMIOCHEMICAL IN THE ENVIRONEMENT BY PASSIVE DIFFUSION, SYSTEM AND MEANS, ESPECIALLY STICKS, TO THIS END, AND USES THEREOF” (SIGNS, priority 2024, published 2025)", "format_in_all_cases": "physicochemical", "key": {"[1]": {"assay": "F3 migration along the stick (top 1 cm, GC/MS)", "settings": "F3, five sticks", "procedure": "Three devices containing 40 mL of F3 feline facial pheromone product and five […] sticks were prepared and left on diffusion. A t=1 day, T=3 days, T=10 days, T=15 days and T=22 days after preparation of the devices, one stick was taken on each device and 1 cm of the top of each stick was cut, then extracted with acetone 1 h in an ultrasonic bath and analysed by gas chromatography coupled with mass spectrometry (GC/MS). The same analytical parameters were used for the study C with a liquid injection (injected quantity: […]) Blank analysis and matrix blank analysis were also performed."}, "[2]": {"assay": "F3P PCDS indirect diffusion, pheromone remaining in solution (GC/FID)", "procedure": "For this study, three diffusers each containing 40 mL of product and 6 capillaries were prepared and diffused. Once a week, on Wednesdays, the amount of pheromone remaining in the solution was monitored by gas chromatography analysis coupled to a flame ionization detector (GC/FID) until no liquid remained. The percentage of pheromone was measured weekly.\nNext, the percentage of pheromone was checked by external calibration using a GC/FID calibration range.\nAnalyses were carried out by gas chromatography coupled to a flame ionization detector. The instrument was a Shimadzu GC 2025® with an AOC20i® autosampler. Separation was performed on an Agilent DB-FFAP® column (30 m×0.25 mm×0.25 μm, stationary phase: nitroterephthalic acid-modified polyethylene glycol). The temperature of the gas chromatography oven was initially maintained at 140° C. for 2 minutes, then increased at 10° C./min to 250° C. and left at this temperature for 3 minutes. The carrier gas was helium at 1 mL/min. Analyses were performed in split mode using a split/splitless injector (temperature: 250° C., split: 1:50).\nThe detector used was a flame ionization detector. The detector temperature was 250° C. with an air flow rate of 400 mL/min, hydrogen 40 mL/min and nitrogen 30 mL/min.\nFor this purpose, a calibration range was prepared for each analysis. […]"}, "[3]": {"assay": "F3 direct diffusion and mass loss, 40 mL and eight sticks with a refill", "settings": "F3, eight sticks", "procedure": "To that purpose, three devices containing 40 mL of F3 feline facial pheromone product and eight rattan sticks were prepared and left on diffusion. Every Monday, Wednesday and Friday, the diffusion of the pheromone in air was checked by analysis by gas chromatography coupled with mass spectrometer (GC/MS) and SPME (solid phase microextraction) until there was no liquid left. Then, the solution was refilled and a second study of the diffusion of the pheromone was performed.\nExperimentally, the studied device was taken and placed into a closed space under identical conditions than in section E/, and for analyzing the same data.\nEach measuring day, the devices were weighed and the level of the solution in the flask was controlled."}, "[4]": {"assay": "F3 block stability study in sodium stearate aqueous gel (GC-MS)", "settings": "after 3 months", "procedure": "Aqueous sodium stearate gel is a method used by SIGNS for several of the pheromones it markets (pork, poultry, rabbit). The sodium stearate matrix is cast at high temperature (60° C.) and contains 2% pheromone. In this study, matrix samples are taken by coring, and the active ingredients are extracted by apolar solvent, using the SIGNS-validated quality control method. Extracts are analyzed by GC-MS. […] Given this observation, formula F3 cannot be used in blocks for passive diffusion, so a change of galenic formulation is necessary."}, "[5]": {"assay": "F3 sticks device, direct diffusion, 40 mL and four sticks (SPME GC/MS)", "settings": "four sticks", "procedure": "Three devices containing 40 mL of F3 feline facial pheromone product and four rattan sticks were prepared and left on diffusion. Every Monday, Wednesday and Friday, the diffusion of the pheromone in air was checked by analysis by gas chromatography coupled with mass spectrometer (GC/MS) and SPME (solid phase microextraction) until there is no liquid left (about 22 days).\nTo that purpose, the studied device was taken and placed into a closed space (in our case an aquarium turned over) containing the SPME fiber as shown on FIG. 24.\nThe SPME fiber was left for two hours to give the time for the molecules to adsorb on the fiber, then the fiber was injected into the GC/MS instrument for analysis.\nAnalysis were carried out using gas chromatography with mass spectrometer. The instrument was a GCMS QP2010SE® from Shimadzu with an AOC6000® Autosampler. The separation was performed on a ZB-5 MS® column (30 m×0.25 mm×0.25 μm, stationary phase: 95% Dimethylpolysiloxane, 5% Phenyl-Arylene) from Phenomenex. The GC oven temperature was initially held at 100° C. for 1 minute then increased at a pace of 10° C./min to 120° C. and left at this temperature for 3 minutes. Finally, the oven temperature was increased at a pace of 10° C./min to 240° C. and left at this temperature for 10 minutes. The carrier gas was helium at 1 mL/min. Analysis were performed in split mode using a split/splitless injector (Temperature: 250° C., split: 1:20). The SPME fiber was directly injected into the injector and left for 30 minutes. Separated molecules were detected using a mass spectrometer which was operated in electron impact ionization (EI) in both full scan (FS) and single ion monitoring (SIM) modes, so called FASST (Fast Automated SCAN/SIM type) mode. The interface temperature was set at 300° C. and electron impact source temperature at 250° C. The analyser was a quadrupole.\nFor the measurement of the relative quantity of active ingredient spreading in air, the area of the chromatographic peak corresponding to the compound was measured using Shimadzu GCMS-Solution software."}, "[6]": {"assay": "F3 direct diffusion, 120 mL and six sticks", "settings": "6 sticks", "procedure": "To that purpose, three devices containing 120 mL of F3 feline facial pheromone product and six rattan sticks were prepared and left on diffusion as shown on FIG. 43.\nThe direct diffusion of F3 pheromone was then studied following the same protocol as the protocol of the first study shown in Section E/herein.\nEach measuring day, the flasks were weighed, and the volume of the liquid was checked visually: see FIGS. 55 and 56."}, "[7]": {"assay": "Ratios of molecules diffused through the sticks over time", "procedure": "Furthermore, as small molecules diffuse more, it happens that they lose intensity over the course of the study, so the ratios are different 24 hours after immersing the sticks in the liquid and 21 days later. Here are the ratios for each pheromone studied at the start of the study and at the end."}}}
{"smiles": "COC(=O)CCCCCC(=O)OC", "note": "[dimethyl pimelate, dimethyl heptanedioate]", "values": [{"measurement": "quantity on the top of the stick over time", "setting": "[1]", "value": "decreased significantly between 5 and 10 days before stabilising"}, {"measurement": "relative quantity on the top of the stick", "setting": "[1]", "value": "less present"}, {"measurement": "quantities found in the solution", "setting": "[2]", "value": "very low"}, {"measurement": "intensity of direct diffusion", "setting": "[3]", "value": "highest diffusion"}, {"measurement": "stability in the block", "setting": "[4]", "value": "disappeared completely"}, {"measurement": "direct diffusion over time", "setting": "[5]", "value": "gradually decreased over time"}, {"measurement": "direct diffusion over time", "setting": "[6]", "value": "decreased over time"}, {"measurement": "ratio of molecules diffused through the sticks", "setting": "[7]; F3, 24 h after immersion of sticks", "value": "70 % (w/w)"}, {"measurement": "ratio of molecules diffused through the sticks", "setting": "[7]; F3, 21 days after immersion of sticks (empty tank)", "value": "48 % (w/w)"}, {"measurement": "ratio of molecules diffused through the sticks", "setting": "[7]; F3P, 24 h after immersion of the sticks", "value": "56 % (w/w)"}, {"measurement": "ratio of molecules diffused through the sticks", "setting": "[7]; F3P, 21 days after immersion of sticks (empty tank)", "value": "36.5 % (w/w)"}]}
